# Laboratory results: ChEMBL document CHEMBL4715769, “Discovery of a novel chimeric ubenimex-gemcitabine with potent oral antitumor activity” (Bioorg Med Chem, 2016)
# Active and inactive are the calls of the source. The calls are words filed in the database; no cut-off is given here.
# Assays:
# [1] = target: T1, Aminopeptidase N (Sus scrofa, UniProt P15145); assay: Inhibition of porcine kidney microsomal CD13 using L-leucine-p-nitroanilide as substrate preincubated for 5 mins followed by substrate addition and measured after 30 mins by microplate reader analysis; format: microsomes, Microsome
# T1 sequence (P15145 whole entry): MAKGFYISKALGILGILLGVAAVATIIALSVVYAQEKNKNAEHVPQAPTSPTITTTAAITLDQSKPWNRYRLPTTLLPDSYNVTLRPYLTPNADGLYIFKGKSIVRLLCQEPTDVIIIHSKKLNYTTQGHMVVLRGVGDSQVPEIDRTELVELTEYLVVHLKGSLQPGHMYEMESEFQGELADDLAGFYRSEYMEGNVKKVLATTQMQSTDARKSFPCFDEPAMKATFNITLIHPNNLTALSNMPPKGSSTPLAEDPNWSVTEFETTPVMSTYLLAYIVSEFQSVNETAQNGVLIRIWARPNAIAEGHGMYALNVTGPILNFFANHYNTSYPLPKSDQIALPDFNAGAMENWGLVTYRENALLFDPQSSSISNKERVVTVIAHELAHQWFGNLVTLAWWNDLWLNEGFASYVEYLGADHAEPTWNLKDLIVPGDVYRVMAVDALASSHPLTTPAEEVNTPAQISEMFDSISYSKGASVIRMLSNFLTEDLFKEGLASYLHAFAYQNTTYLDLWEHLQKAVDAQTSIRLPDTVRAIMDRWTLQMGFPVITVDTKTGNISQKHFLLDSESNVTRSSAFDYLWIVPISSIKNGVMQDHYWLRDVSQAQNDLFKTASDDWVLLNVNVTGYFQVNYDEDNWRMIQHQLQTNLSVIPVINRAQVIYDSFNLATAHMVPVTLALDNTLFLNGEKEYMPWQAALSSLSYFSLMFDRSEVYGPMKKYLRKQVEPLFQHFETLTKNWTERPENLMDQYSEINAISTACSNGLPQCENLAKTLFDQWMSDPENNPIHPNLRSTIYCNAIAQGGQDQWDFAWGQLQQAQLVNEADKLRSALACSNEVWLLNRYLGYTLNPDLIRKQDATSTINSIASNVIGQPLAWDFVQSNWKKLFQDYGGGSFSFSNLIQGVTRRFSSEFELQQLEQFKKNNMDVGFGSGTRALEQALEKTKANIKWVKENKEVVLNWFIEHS
# [2] = Antiproliferative activity against human ES2 cells after 48 hrs by MTT assay; conditions: ES-2, 48 h
# [3] = system: H22; assay: Antitumor activity against mouse H22 cells transplanted in Kunming mouse assessed as tumor growth inhibition at 25 mg/kg, po administered every 4 days for 4 doses; format: functional, organism-based; conditions: time 4.0 day
# [4] = system: HUVEC; assay: Antiangiogenic activity in HUVEC assessed as inhibition of capillary like tubular formation at 30 uM after 8 hrs by matrigel based tube formation assay; format: functional; conditions: Homo sapiens
# [5] = Prodrug conversion in human plasma assessed as release of active metabolites GEM and Ube measured within 120 mins at 37 degC by HPLC analysis; format: ADME, cell-free; conditions: 2 h
# [6] = system: HepG2; conditions: Homo sapiens, dose 25.0 mg/kg
# Description: Antitumor activity against human HepG2 cells xenografted in BALB/c nude mouse assessed as inhibition of tumor growth at 25 mg/kg, po
# [7] = system: KG-1; assay: Antiproliferative activity against human KG1 cells after 48 hrs by MTT assay; conditions: KG-1, 48 h
# [8] = system: A549; assay: cells; conditions: Homo sapiens, A549, 48 h
# [9] = system: K562; assay: cells; conditions: Homo sapiens, K562, 48 h
# [10] = system: HeLa; assay: cells; conditions: Homo sapiens, 48 h
# [11] = system: PLC-PRF-5; assay: Induction of apoptosis in human PLC-PRF-5 cells assessed as necrotic cells at 2 uM after 48 hrs by Annexin V-FITC/propidium iodide staining-based flow cytometric analysis (reference value: 6.1 %); format: functional
# [12] = system: L02; assay: Antiproliferative activity against human HL7702 cells after 48 hrs by MTT assay; conditions: L02, 48 h
# [13] = system: PLC-PRF-5; assay: Induction of apoptosis in human PLC-PRF-5 cells assessed as late apoptotic cells at 2 uM after 48 hrs by Annexin V-FITC/propidium iodide staining-based flow cytometric analysis (reference value: 8.7 %); format: functional
# [14] = system: U-937; assay: cells; conditions: Homo sapiens, U-937, 48 h
# Description: Antiproliferative activity against human U937 cells after 48 hrs by MTT assay
# [15] = system: PLC-PRF-5; assay: Antitumor activity against human PLC-PRF-5 cells xenografted in BALB/c nude mouse assessed as inhibition of tumor growth by measuring T/C ratio at 25 mg/kg, po; format: functional
# [16] = system: MDA-MB-231; assay: Antiproliferative activity against human MDA-MB-231 cells after 48 hrs by MTT assay; conditions: MDA-MB-231, 48 h
# [17] = system: Aorta; assay: Antiangiogenic activity in Wistar rat thoracic aortic rings assessed as decrease in number of microvessels sprouting at 20 ug/ml treated every other day for 9 days; format: functional, tissue-based; conditions: dose 20.0 µg/ml, time 9.0 day
# [18] = system: PLC-PRF-5; assay: Inhibition of colony formation in human PLC-PRF-5 cells assessed as reduction in number of colonies at 0.2 uM after 2 weeks by Giemsa staining based inverted microscopic analysis; format: functional, cell-based
# [19] = system: PC-3; assay: cells; conditions: Homo sapiens, PC-3, 48 h
# Description: Antiproliferative activity against human PC-3 cells after 48 hrs by MTT assay
# [20] = system: HEL; assay: cells; conditions: Homo sapiens, 48 h
# Description: Antiproliferative activity against human HEL cells after 48 hrs by MTT assay
# [21] = Antiproliferative activity against human 3AO cells after 48 hrs by MTT assay
# [22] = system: U-266; assay: Antiproliferative activity against human U266 cells after 48 hrs by MTT assay; conditions: U-266, 48 h
# [23] = system: PLC-PRF-5; assay: Antiproliferative activity against human PLC-PRF-5 cells after 48 hrs by MTT assay; conditions: PLC-PRF-5, 48 h
# [24] = system: H22; assay: Antitumor activity against mouse H22 cells transplanted in Kunming mouse assessed as tumor growth inhibition at 25 mg/kg, ip administered every 4 days for 4 doses; format: functional, organism-based; conditions: time 4.0 day
# [25] = system: PLC-PRF-5; assay: Antitumor activity against human PLC-PRF-5 cells xenografted in BALB/c nude mouse assessed as inhibition of tumor growth by measuring T/C ratio at 25 mg/kg, ip; format: functional
SMILES,IC50 [2] [nM],IC50 [7] [nM],IC50 [8] [nM],IC50 [9] [nM],IC50 [10] [µM],Activity [11] [%],IC50 [12] [µM],Activity [13] [%],IC50 [14] [nM],IC50 [16] [nM],IC50 [19] [nM],IC50 [20] [nM],IC50 [21] [µM],IC50 [22] [nM],IC50 [23] [nM],other results
CC(C)C[C@H](NC(=O)[C@@H](O)[C@H](N)Cc1ccccc1)C(=O)Nc1ccn([C@@H]2O[C@H](CO)[C@@H](O)C2(F)F)c(=O)n1.Cl,280,820,660,130,5.48,10.7,22.1,18.4,80,1560,260,610,9.73,260,1410,IC50 [1]: 8.75 µM; growth inhibition (GI) [3]: Active; inhibition at 30 µM [4]: 100%; Drug metabolism [5]: Metabolite_Detected; inhibition [6]: Active; T/C [15]: 51%; Activity [17]: Active; Activity [18]: Active
Nc1ccn([C@@H]2O[C@H](CO)[C@@H](O)C2(F)F)c(=O)n1 [GEMCITABINE],530,860,260,110,2.74,25,5.43,18,70,1670,220,480,5.73,220,1530,growth inhibition (GI) [24]: Active; T/C [25]: 54%
CC(C)C[C@H](NC(=O)[C@@H](O)[C@H](N)Cc1ccccc1)C(=O)O [UBENIMEX],> 500000,> 500000,,,> 500,7.1,,11,,> 500000,,> 500000,> 500,> 500000,> 500000,
